Reference: US20210371388A1, “Bicyclic Carboxamide with Exocyclic Urea Derivatives as Antivirals for the Treatment of HBV Infection” (Baruch S. Blumberg Institute, priority 2020, published 2021)

test system: HBV replication in AML12HBV10 cells; test: Antiviral efficacy: HBV DNA in AML12HBV10 cell lysates by dot-blot hybridization; type: cell-based; details: Hepatitis B virus, AML12HBV10, 48 h, read-out: Antiviral activity (EC50), AML12HBV10 cells, 48 hours treatment, concentration that reduces the amount of HBV DNA by 50%
Protocol: The antiviral efficacy of the compounds of the disclosure, as presented in Table 2, were determined in AML12HBV10 cells. AML12HBV10 is an immortalized murine hepatocyte (AML12)-derived stable cell line that supports robust HBV replication in a tetracycline inducible manner (Xu et al.). The cells were seeded into 96 well plates at a density of 2×10^4 cells per well and cultured in DMEM/F12 media with 10% fetal bovine serum in the absence of tetracycline to allow pgRNA transcription and HBV DNA replication. One day after seeding, cells were left untreated or treated with a serial dilution of testing compounds, ranging from 50 μM to 0.39 μM, for 48 hours. Cells were then lysed by adding into each well of 100 μl lysis buffer containing 10 mM Tris-HCl (pH 7.6), 1 mM EDTA, 100 mM NaCl and 1% NP-40 and incubated at 37° C. for 30 minutes. Half amount (50 μλ) of cell lysate from each well was combined with equal volume of denaturing solution containing 0.5N NaOH and 1.5M NaCl. After 5 minute incubation, 100 μl of neutralization solution (1M Tris-HCl, pH 7.4, 1.5M NaCl) was added into each well. The denatured cell lysates (totally 200 μl) were applied onto Nylon membrane using 96-well dot-blot manifold (Biorad). HBV DNA in the cell lysates were determined by dot-blot hybridization with alpha-^32P-UTP-labelled riboprobe specific for HBV minus strand DNA. The antiviral efficacy of a compound of the disclosure was expressed as the concentration that reduces the amount of HBV DNA by 50% (EC50).

First: O=C1CCN(C(=O)Nc2ccc(F)c(Cl)c2)c2ccccc21 [Entry 1]
Second: O=C1CCCN(C(=O)Nc2ccc(F)c(Cl)c2)c2ccccc21 [Entry 10]
The EC50 of the first is lower: 1.32 µM for the first, no less than 10 µM for the second. The first is the more potent here.

Compared with `O=C1CCN(C(=O)Nc2ccc(F)c(Cl)c2)[C@H]2CCCC[C@H]12` [Entry 3], `O=C1CCN(C(=O)Nc2cc(F)c(F)c(Cl)c2)C2CCCCC12` (centres unmarked) [Entry 20] is 5.7-fold higher in EC50: 0.42 µM for the first, 2.4 µM for the second. The first is the more potent here.

First: O=C(Nc1ccc(F)c(Cl)c1)N1CCc2ccccc21 [Entry 4]
Second: O=C(Nc1ccc(F)c(Cl)c1)N1CCCc2ccccc21 [Entry 8]
The EC50 of the first is 4.3-fold lower: 0.36 µM for the first, 1.55 µM for the second.

`O=C(Nc1ccc(F)c(Cl)c1)N1CCOc2ccccc21` [Entry 5] and `O=C(Nc1ccc(F)c(Cl)c1)N1CCNc2ccccc21` [Entry 9] are within 1.5-fold of each other in EC50: 0.52 µM for the first, 0.5 µM for the second.

`O=C(Nc1ccc(F)c(Cl)c1)N1CCCCc2ccccc21` [Entry 6] and `O=C(Nc1ccc(F)c(Cl)c1)N1CCS(=O)(=O)c2ccccc21` [Entry 53] cannot be ordered by EC50: 12.3 µM for the first, no less than 10 µM for the second.

Compared with `Cc1ccc2c(c1)CCN2C(=O)Nc1ccc(F)c(Cl)c1` [Entry 11], `O=C(Nc1ccc(F)c(Cl)c1)N1CCc2cc(F)c(F)cc21` [Entry 12] is 2.5-fold lower in EC50: 5.26 µM for the first, 2.07 µM for the second. The second is the more potent here.

`O=C1CCN(C(=O)Nc2cc(F)c(F)c(F)c2)[C@H]2CCCC[C@@H]12` [Entry 13] and `O=C1CCN(C(=O)Nc2cc(F)c(F)c(F)c2)[C@H]2CCCC[C@H]12` [Entry 14] are within 1.5-fold of each other in EC50: 2.41 µM for the first, 3.46 µM for the second.

First: CC1(O)CCN(C(=O)Nc2ccc(F)c(Cl)c2)C2CCCCC21 (centres unmarked) [Entry 15]
Second: O=C(Nc1ccc(F)c(Cl)c1)N1CCNC2CCCCC21 (centres unmarked) [Entry 40]
The EC50 of the first is lower: 6.4 µM for the first, no less than 10 µM for the second. The first is the more potent here.

`O=C(Nc1cc(F)c(F)c(F)c1)N1CCC(O)C2CCCCC21` (centres unmarked) [Entry 19] and `O=C(Nc1cc(F)c(F)c(F)c1)N1CCNC2CCCCC21` (centres unmarked) [Entry 38] cannot be ordered by EC50: no less than 10 µM for the first, no less than 10 µM for the second.

`O=C(Nc1cc(F)c(F)c(F)c1)N1CCNc2ccccc21` [Entry 21] and `O=C(Nc1cc(F)c(F)c(Cl)c1)N1CCNc2ccccc21` [Entry 33] are within 1.5-fold of each other in EC50: 0.63 µM for the first, 0.93 µM for the second.

`O=C1CN(C(=O)Nc2cc(F)c(F)c(F)c2)c2ccccc2N1` [Entry 22] and `O=C1CN(C(=O)Nc2ccc(F)c(Cl)c2)c2ccccc2N1` [Entry 23] cannot be ordered by EC50: no less than 10 µM for the first, no less than 10 µM for the second.

`O=C(Nc1ccc(F)c(Cl)c1)N1CCN(CCCCF)c2ccccc21` [Entry 24] and `CC(C)(C)NC(=O)N1CCN(C(=O)Nc2ccc(F)c(Cl)c2)c2ccccc21` [Entry 54] cannot be ordered by EC50: no less than 10 µM for the first, no less than 10 µM for the second.

`O=C(Nc1cc(F)c(F)c(F)c1)N1CCN(CC(F)(F)F)c2ccccc21` [Entry 25] and `O=C(Nc1cc(F)c(F)c(F)c1)N1CCN(CCC(F)(F)F)c2ccccc21` [Entry 26] cannot be ordered by EC50: no less than 10 µM for the first, no less than 10 µM for the second.

`O=C(Nc1cc(F)c(F)c(F)c1)N1CCN(C(=O)c2ccccn2)c2ccccc21` [Entry 27] and `O=C(Nc1cc(F)c(F)c(F)c1)N1CCN(C(=O)c2ccccc2)c2ccccc21` [Entry 32] cannot be ordered by EC50: no less than 10 µM for the first, no less than 10 µM for the second.

`O=C(Nc1cc(F)c(F)c(F)c1)N1CCN(C(=O)c2ccc(C(F)(F)F)cc2)c2ccccc21` [Entry 28] and `CC(=O)N1CCN(C(=O)Nc2cc(F)c(F)c(F)c2)c2ccccc21` [Entry 29] cannot be ordered by EC50: no less than 10 µM for the first, no less than 10 µM for the second.

Compared with `CC(C)(C)C(=O)N1CCN(C(=O)Nc2cc(F)c(F)c(F)c2)c2ccccc21` [Entry 30], `CC(C)C(=O)N1CCN(C(=O)Nc2cc(F)c(F)c(F)c2)c2ccccc21` [Entry 31] is lower in EC50: no less than 10 µM for the first, 4.71 µM for the second. The second is the more potent here.

`O=C(Nc1cc(F)c(F)c(F)c1)N1CCN(S(=O)(=O)c2ccccc2)c2ccccc21` [Entry 34] and `O=C(Nc1cc(F)c(F)c(F)c1)N1CCN(C(=O)OCc2ccccc2)c2ccccc21` [Entry 37] cannot be ordered by EC50: no less than 10 µM for the first, no less than 10 µM for the second.

`CCCCOC(=O)N1CCN(C(=O)Nc2cc(F)c(F)c(F)c2)c2ccccc21` [Entry 35] and `CC(C)COC(=O)N1CCN(C(=O)Nc2cc(F)c(F)c(F)c2)c2ccccc21` [Entry 36] cannot be ordered by EC50: no less than 10 µM for the first, no less than 10 µM for the second.

`O=C(Nc1ccc(F)c(Cl)c1)N1CCOC2CCCCC21` (centres unmarked) [Entry 41] and `O=C(Nc1ccc(F)c(Cl)c1)N1CCCC2CCCCC21` (centres unmarked) [Entry 46] cannot be ordered by EC50: no less than 10 µM for the first, no less than 10 µM for the second.

`O=C(Nc1ccc(F)c(Cl)c1)N1CCN(C(=O)Nc2ccc(F)c(Cl)c2)[C@H]2CCCC[C@@H]21` [Entry 42] and `CC(C)(C)OC(=O)N1CCN(C(=O)Nc2ccc(F)c(Cl)c2)[C@H]2CCCC[C@@H]21` [Entry 43] cannot be ordered by EC50: no less than 10 µM for the first, no less than 10 µM for the second.

`CC(C)(C)OC(=O)N1CCN(C(=O)Nc2ccc(F)c(Cl)c2)[C@@H]2CCCC[C@@H]21` [Entry 44] and `O=C(Nc1ccc(F)c(Cl)c1)N1CCN[C@H]2CCCC[C@H]21` [Entry 47] cannot be ordered by EC50: no less than 10 µM for the first, no less than 10 µM for the second.

`O=C(Nc1ccc(F)c(Cl)c1)N1CCN(C(=O)Nc2ccc(F)c(Cl)c2)c2ccccc21` [Entry 48] and `O=C(Nc1cccc(Cl)c1)N1CCN(C(=O)Nc2ccc(F)c(Cl)c2)c2ccccc21` [Entry 57] are within 1.5-fold of each other in EC50: 0.75 µM for the first, 0.65 µM for the second.

`O=C(Nc1ccc(F)c(Cl)c1)N1CC2(CCCC2)Nc2ccccc21` [Entry 49] and `CC1(C)CN(C(=O)Nc2ccc(F)c(Cl)c2)c2ccccc2N1` [Entry 50] cannot be ordered by EC50: no less than 10 µM for the first, no less than 10 µM for the second.

`CC1CN(C(=O)Nc2ccc(F)c(Cl)c2)c2ccccc2N1` (centres unmarked) [Entry 51] and `NC(=O)C1CN(C(=O)Nc2ccc(F)c(Cl)c2)c2ccccc2N1` (centres unmarked) [Entry 62] cannot be ordered by EC50: no less than 10 µM for the first, no less than 10 µM for the second.

Going from `O=C(Nc1ccc(F)c(Cl)c1)N1CC(c2ccccc2)Nc2ccccc21` (centres unmarked) [Entry 52] to `O=C(Nc1ccc(F)c(Cl)c1)N1c2ccccc2NCC1c1ccccc1` (centres unmarked) [Entry 63], the EC50 falls from no less than 10 µM to 0.78 µM.

First: O=C1CN(C(=O)Nc2ccc(F)c(Cl)c2)C2CCCCC2N1 (centres unmarked) [Entry 56]
Second: CC1CNc2ccccc2N1C(=O)Nc1ccc(F)c(Cl)c1 (centres unmarked) [Entry 64]
The EC50 of the first is higher: no less than 10 µM for the first, 4.38 µM for the second.

Going from `O=C(Nc1cc(Cl)ccc1F)N1CCNc2ccccc21` [Entry 58] to `O=C(Nc1ccc(F)c(Cl)c1)N1CC(CN2CCC(F)(F)C2)Nc2ccccc21` (centres unmarked) [Entry 76], the EC50 rises from 0.77 µM to 5.09 µM (6.6-fold). The first is the more potent here.

`O=C(Nc1cc(F)c(F)c(F)c1)N1CCN(C(=O)Nc2cc(F)c(F)c(F)c2)c2ccccc21` [Entry 59] and `CC1CN(C(=O)Nc2ccc(F)c(Cl)c2)c2ccccc2N1C(=O)Nc1ccc(F)c(Cl)c1` (centres unmarked) [Entry 65] are within 1.5-fold of each other in EC50: 1.12 µM for the first, 1.3 µM for the second.

Going from `CC(C)C1CN(C(=O)Nc2ccc(F)c(Cl)c2)c2ccccc2N1C(=O)NCc1ccc(F)c(F)c1` (centres unmarked) [Entry 66] to `O=C(Nc1ccc(F)c(Cl)c1)N1CC(CN2CCC(F)(F)C2)N(C(=O)Nc2ccc(F)c(Cl)c2)c2ccccc21` (centres unmarked) [Entry 69], the EC50 falls from 1.66 µM to 0.65 µM (2.6-fold).

Going from `O=C(Nc1ccc(F)c(Cl)c1)N1CC(CN2CCOCC2)N(C(=O)Nc2ccc(F)c(Cl)c2)c2ccccc21` (centres unmarked) [Entry 67] to `O=C(Nc1ccc(F)c(Cl)c1)N1CC(CN2CCC(O)CC2)N(C(=O)Nc2ccc(F)c(Cl)c2)c2ccccc21` (centres unmarked) [Entry 68], the EC50 rises from 2.03 µM to no less than 10 µM.

First: CN1CCN(CC2CN(C(=O)Nc3ccc(F)c(Cl)c3)c3ccccc3N2C(=O)Nc2ccc(F)c(Cl)c2)CC1 (centres unmarked) [Entry 70]
Second: O=C(Nc1ccc(F)c(Cl)c1)N1CC(CN2CCCC(F)(F)C2)N(C(=O)Nc2ccc(F)c(Cl)c2)c2ccccc21 (centres unmarked) [Entry 72]
The EC50 of the first is higher: no less than 10 µM for the first, 1.23 µM for the second.

First: O=C1CC(c2ccccc2)N(C(=O)Nc2ccc(F)c(Cl)c2)c2ccccc21 (centres unmarked) [Entry 73]
Second: O=C(Nc1ccc(F)c(Cl)c1)N1c2ccccc2NCC1CN1CCC(F)(F)CC1 (centres unmarked) [Entry 77]
The EC50 of the first is 10-fold higher: 2.89 µM for the first, 0.28 µM for the second. The second is the more potent here.

`O=C(Nc1ccc(F)c(Cl)c1)N1CC(CN2CCC(F)(F)CC2)Nc2ccccc21` (centres unmarked) [Entry 78] gave an EC50 of 4.32 µM.
